The values that follow come from patent US20250198988A1 (priority 2012, published 2025).

Assay [1] concerns blood specimen involving acute myeloid leukemia (AML). The note with it: live cells from blood specimen, apoptosis by OD at 600 nm.
Experimental: In the MiCK assay cancer cells from a patient are placed in a suspension of a given concentration of single cells or small cell clusters and allowed to adjust to conditions in multiple wells of a microtiter plate. […] The optical density of each well is then measured periodically, typically every few minutes, for a period of typically a few days. As a cell undergoes apoptosis-related blebbing, its optical density increases in a nearly linear fashion.
The assay may proceed by selecting an anti-cancer drug candidate and selecting at least one known cancer cell type on which to test the drug. The cancer cells may be suspended as a single-cell suspension in culture medium, such as RPMI. As used herein, a “single cell suspension” is a suspension of one or more cells in a liquid in which the cells are separated as individuals or in small clumps of 50 cells or fewer. […]
Suspended cells may be tested by placing samples in wells of a spectrophotometric plate. The cells may be suspended at any concentration such that during the spectrophotometric measurements of OD, the beam of the plate reader normally passes through the layer of cells. […]
The drug candidate and any control drugs or other control samples may be added to the wells after the adjustment period. […] Although many drug candidates may be water-soluble, drug candidates that are not readily soluble in water may also be tested.
Assay [2] concerns solid tumor specimen involving lung cancer metastases. In words: MiCK assay of apoptosis on patient solid tumor specimen (Appendix A report). In kind it is cell-based. The note with it: live cells from solid tumor specimen, apoptosis by OD at 600 nm. The source says:
Such candidates may be mixed with any appropriate carrier.
Spectrophotometric data may be converted to kinetic units.
Kinetic units may be determined as follows:
KU=(VmaxDrug Treated−Vmaxcontrol)×60X y/(ODcell−ODblank).
Appendix A is a report based on tests conducted on a solid tumor specimen involving lung cancer metastases.

On to `O=P1(N(CCCl)CCCl)NCCCO1` (centres unmarked) [Cytoxan, cyclophosphamide], for which the “maximum kinetic units (KU)” value in assay [1] is 7.4 KU.

Take `CC(=O)O[C@H]1C(=O)[C@@]2(C)[C@H]([C@H](OC(=O)c3ccccc3)[C@]3(O)C[C@H](OC(=O)[C@H](O)[C@@H](NC(=O)c4ccccc4)c4ccccc4)C(C)=C1C3(C)C)[C@]1(OC(C)=O)CO[C@@H]1C[C@@H]2O` [paclitaxel]: in assay [2], the “maximum kinetic units (KU)” value is 7.6 KU.
